Laboratory results as given in US12098395B2, “Polypeptide with function of targeting recognition of immune cells and application thereof” (Keyangle Life Technology Co., Ltd., priority 2018, dated 2024).
No end group written: not given here. code X = not defined here

Experiments:
[1] = test system: mouse peritoneal macrophages; test: In vivo fluorescent labeling of macrophages in a mouse abdominal cavity; design: species or system Kunming mice; details: for recognition of macrophages in vivo: conclusion from Table 1, mouse peritoneal macrophages; for fluorescent labeling of macrophages extracted from the mouse abdominal cavity: labeled in vivo by intraperitoneal injection, cells extracted after 4 hours, Nucblue double-stain
Method: Dilute 300 μL of 50 μM EK24 fluorescent probe solution with serum-free DMEM incomplete medium to obtain 1 mL of solution, then inject into the abdominal cavity of 5-8 weeks old Kunming mice. After 4 hours, inject 5 mL of 1×PBS and massage. After 10 minutes, sacrifice the mice by cervical vertebra dislocation. Cut the abdominal cavity skin of the mice, pierce the abdominal wall muscle by a syringe, and extract the fluid in the abdominal cavity of the mice. Centrifuge the extracted peritoneal fluid at 1000 rpm for 5 min, wash twice with 1×PBS. Add appropriate amount of cells to a 96-well plate and double-stain with a nuclear dye Nucblue (Invitrogen). Observe under fluorescence microscope (light source 10%, exposure 200 ms, gain 5) after the suspended cells were settled down at the bottom of the plate.
Table 1 lists probes, which contain the polypeptide fragments from the C-terminal fragments of Triokinases/FMN cyclases of different species and were prepared by a similar process as described in Examples 1 and 2, and in vivo imaging results of mouse peritoneal macrophages using these probes.

[2] = test system: mouse macrophage cell line RAW264.7; test: In vitro fluorescence labeled staining of a mouse macrophage cell line; type: cell-based; details: 10 μM probe, 1 h incubation
Method: Culture the mouse macrophage cell line RAW264.7 in a 96-well plate, wash the wells once with 1×PBS buffer or a serum-free DMEM incomplete medium, remove the washing liquid, add EK24 solution of 10 μM which had been diluted with 100 μL of serum-free DMEM incomplete medium, and incubate in a cell culture incubator for 1 h. After that, wash the wells twice with 1×PBS buffer or the serum-free DMEM incomplete medium. Then, add DMEM complete medium containing 10% FBS and 1% streptomycin-penicillin, and double-stain the cells using nuclear dye Nucblue, and observe under EVOS® FL Auto fluorescence microscope (Life Technologies, light source 10%, exposure 200 ms, gain 5).

[3] = test system: cultured peritoneal macrophages and mesenteric digestive cells; test: Selective labeling of cultured peritoneal macrophages among cells released from enzyme-digested mesenterium; type: cell-based, Kunming mice; details: peritoneal cells and trypsin-digested mesenteries cultured 3 days
Method: Take 5 to 8 week-old Kunming mice, inject intraperitoneally with 5 mL of serum-free DMEM incomplete medium. After 1 hour, sacrifice the mice by cervical vertebra dislocation. Make an incision on the skin of abdominal cavity, pierce the abdominal wall muscle using a syringe, and extract the fluid in the abdominal cavity of the mice. Wash twice with 1×PBS, collect peritoneal cells by centrifugation. Also take the mesenteries of the Kunming mice and purge twice with 1×PBS in centrifuge tubes. Incubate the obtained peritoneal cells and mesenteries in 0.25% trypsin solution and digest for 30 minutes. Enrich the cells by centrifugation, and then culture for 3 days in a 96-well plate using F12/DMEM culture solution containing 10% FBS and 1% streptomycin-penicillin. Referring to Example 5, label with the EK24 fluorescent probe and Nucblue. Then the cells were observed under a fluorescence microscope (20×, light source 10%, exposure 200 ms, gain 5).

[4] = test system: cultured macrophages isolated from mouse peritoneal cavity; test: In vitro fluorescent labeling of cultured macrophages isolated from mouse peritoneal cavity, co-staining with F4/80 antibody; type: cell-based; details: 10 μM EK24 premixed with F4/80 antibody, 1 h at 37° C.
Method: Inject 5 mL of serum-free DMEM incomplete medium into the abdominal cavity of 5 to 8 weeks old mice, massage the abdominal cavity gently for 10 min, and sacrifice the mice by cervical vertebra dislocation. Extract the fluid from the abdominal cavity gently with a syringe, inject into a 5 mL centrifuge tube and centrifuge at 1000 rpm for 5 min, remove the supernatant, and resuspend the collected ex-vivo cells in DMEM/F12 medium containing 10% FBS, then add into a 96-well plate for culture. Generally, if cells are taken intraperitoneally for in vitro culture, macrophages would tend to adhere to bottom of the well, and other cells would be washed off. The cells were cultured for more than 2 days until the cells attached the bottom firmly. At this time, the cells remaining in the wells were basically macrophages. Select two wells, one as a control and the other as an experimental well. The cells of the control were nuclear stained with Nucblue. The experimental well was added with a premix of AlexaFluor®488 anti-mouse F4/80 antibody (Biolegend) and EK24 fluorescent probe, and then incubated for 1 h at 37° C. The premix contained 10 μM of EK24 solution and 2 μL of Alexa Fluor®488 anti-mouse F4/80 antibody diluted with 100 μL of serum-free DMEM incomplete medium. […] The cells were observed under a fluorescence microscope (20×objective lens, light source 10%, exposure 200 ms, gain 5).

[5] = test system: monocyte precursors from rat bone marrow; test: In vitro fluorescent labeling of rat primary monocyte precursors; type: cell-based
Text: With a similar process to Example 7, mononuclear cell precursors from rat femoral bone marrow were taken and cultured, and then labeled by using EK24 fluorescent probe and Nucblue. Then the cells were observed under a fluorescence microscope (20×, light source 10%, exposure 200 ms, gain 5).

[6] = test system: bone marrow monocyte precursors of New Zealand White Rabbit; test: In vitro fluorescent labeling of primary monocyte precursors of New Zealand White Rabbit; type: cell-based
Text: With a similar process to Example 7, bone marrow monocyte precursors of New Zealand White Rabbit were taken and cultured, then labeled by using EK24 fluorescent probe and Nucblue. Then the cells were observed under a fluorescence microscope (20×, light source 10%, exposure 200 ms, gain 5).

[7] = test system: macrophages on mouse abdominal wall; test: In vivo fluorescent labeling of macrophages on mouse abdominal wall with CD68 antibody co-staining; details: in vivo injection, abdominal wall muscle removed
Method: Referring to Example 4, using the same drug injection process, inject EK24, and FITC anti-mouse CD68 antibody (Biolegend) which was diluted with PBS from 2 μL to 500 μL. Remove mouse abdominal wall muscle for Nucblue double-staining and then observing under a fluorescence microscope (20×, light source 50%, exposure 200 ms, gain 5).

[8] = test system: primary macrophages from rat peritoneal cavity; test: In vitro fluorescent labeling of primary macrophages from rat peritoneal cavity; type: cell-based, SD rats; details: cultured more than 2 days
Method: With the same process as in Example 5, extract cells from the abdominal cavity of 5 to 8 weeks old SD rats using 20 mL serum-free DMEM incomplete medium and culture the cells in a 96-well plate. After culturing for more than 2 days, until the cells attached the bottom firmly, a well was selected and added with EK24 fluorescent probe for incubation. Then the cells were observed under a fluorescence microscope (20×, light source 10%, exposure 200 ms, gain 5).

[9] = test system: monocyte precursors from mouse bone marrow; test: Fluorescence labeling of mouse primary monocyte precursors at different incubation times; type: cell-based; details: incubating only for 10 min
Method: Referring to Example 7, using the same treatment process, the monocyte precursors from mouse bone marrow were obtained. After culturing for 6 days, the cultured cells were labeled with […] fluorescent probe over different incubation times. Then the cells were observed under a fluorescence microscope (20×, light source 20%, exposure 200 ms, gain 5).
Nucblue was further used for nuclear staining. In each of FIGS. 18A, 18B, 18C, and 18D, i) is an image labeled with the […] fluorescent probe (shown in red in the original fluorescence color image), and ii) is an image obtained by nuclear staining with Nucblue (shown in blue in the original fluorescence color image), and iii) is a merged image of i) and ii).

| Substance | recognition of macrophages in vivo [1] | fluorescent labeling of macrophages extracted from the mouse abdominal cavity [1] | further results |
| --- | --- | --- | --- |
| LQPDPGAVAAAAVLRAVLEGLQG-Y (LQPDPGAVAAAAVLRAVLEGLQGY; also: C-terminal reporter Y, nature not defined) [LK24, Chicken Triokinase/FMN cyclase C-terminal peptide probe, Y = reporter or cysteine/lysine + reporter] | can effectively recognize macrophages in vivo | can be labeled | – |
| EQPDPGAVAAAAILRAILEVLQS-Y (not fully specified (C-terminus)) [EK24, Human/rhesus Triokinase/FMN cyclase C-terminal peptide; Y is lysine plus rhodamine fluorescent labeling group on the lysine side chain] | can effectively recognize macrophages in vivo | can be labeled | fluorescent labeling of RAW264.7 cells [2]: can be labeled; staining of macrophages in mixed culture [3]: only stains macrophages; staining of non-macrophages in mixed culture [3]: not stain non-macrophages; co-localization of probe label with F4/80 antibody label [4]: co-localized on the same cells; labeling of monocyte precursors from rat bone marrow mesenchyme [5]: capable of labeling; labeling of monocyte precursors from New Zealand White Rabbit bone marrow mesenchyme [6]: capable of labeling; labeling of macrophages on mouse abdominal wall [7]: can be labeled; labeling of other cells of mouse abdominal wall [7]: cannot be labeled; labeling of in vitro cultured primary macrophages from rat peritoneal cavity [8]: can effectively label |
| LEQPDPGAVAAAAILRAILE-Y (LEQPDPGAVAAAAILRAILEY; also: C-terminal reporter Y, nature not defined) [LEK21, Human Triokinase/FMN cyclase C-terminal peptide probe, Y = reporter or cysteine/lysine + reporter] | can effectively recognize macrophages in vivo | can be labeled | – |
| X-KNMEAGAGRASYISSARLEQPDPGAVAAAAILRAIL ({code X}-KNMEAGAGRASYISSARLEQPDPGAVAAAAILRAIL; reading uncertain; also: N-terminal reporter X, nature not defined) [KnNL36, Human Triokinase/FMN cyclase C-terminal peptide probe, X = reporter or cysteine/lysine + reporter] | can effectively recognize macrophages in vivo | can be labeled | – |
| X-DQPDPGAVAAAAILRAILEVLQSQGA ({code X}-DQPDPGAVAAAAILRAILEVLQSQGA; reading uncertain; also: N-terminal reporter X, nature not defined) [b-KA27, Pig and cattle Triokinase/FMN cyclase C-terminal peptide probe, X = reporter or cysteine/lysine + reporter] | can effectively recognize macrophages in vivo | can be labeled | – |
| X-EDQPDPGAVAAAAILRAILEVLQS ({code X}-EDQPDPGAVAAAAILRAILEVLQS; reading uncertain; also: N-terminal reporter X, nature not defined, printed as X-EDQPDPGAVAAAAILRAILEVLQS) [KS24, Human Triokinase/FMN cyclase C-terminal peptide probe, X = reporter or cysteine/lysine + reporter (rhodamine or FITC)] | can effectively recognize macrophages in vivo | can be labeled | fluorescence detection with microscope [9]: can be even detected |
| X-DQPDPGAVAAAAILRTILEVLQSQGV ({code X}-DQPDPGAVAAAAILRTILEVLQSQGV; reading uncertain; also: N-terminal reporter X, nature not defined) [d-KV27, Dog Triokinase/FMN cyclase C-terminal peptide probe, X = reporter or cysteine/lysine + reporter] | can effectively recognize macrophages in vivo | can be labeled | – |
| X-DQPDPGAVAAAAIFRAILEVLQTKAA ({code X}-DQPDPGAVAAAAIFRAILEVLQTKAA; reading uncertain; also: N-terminal reporter X, nature not defined) [r-KA27, Rat Triokinase/FMN cyclase C-terminal peptide probe, X = reporter or cysteine/lysine + reporter] | can effectively recognize macrophages in vivo | can be labeled | – |
| X-TKNMEAGAGRASYISSARLEQPDPGAVAAAAILRAILEVLQS ({code X}-TKNMEAGAGRASYISSARLEQPDPGAVAAAAILRAILEVLQS; reading uncertain; also: N-terminal reporter X, nature not defined) [TS42, Human Triokinase/FMN cyclase C-terminal peptide probe, X = reporter or cysteine/lysine + reporter] | can effectively recognize macrophages in vivo | can be labeled | – |
